Data from patent publication US20160158189A1, “SENSITIZATION OF CANCER CELLS TO APOPTOSIS INDUCTION BY FLAVAGLINES AND 5-HYDROXY-FLAVONES” (DEUTSCHES KREBSFORSCHUNGSZENTRUM, priority 2013, published 2016).

Experiments:
Assay type in all cases: cell-based, human
CEM cells = assay: Apoptotic cell death by DNA fragmentation, CEM; conditions: for effect on ABT-263-induced apoptosis: ABT-263 plus 10 μM flavone, 30 h
Method: (§1) The human malignant cell lines used in this study are the T cell leukemic cell lines CEM, Molt-4 and Jurkat (J16), the HL cell line KM-H2, the cervix adenocarcinoma cell line HeLa, the melanoma cell line A375, the hepatocellular carcinoma cell line HepG2, the pancreatic carcinoma cell line MiaPaca, the breast cancer cell line MCF-7, the prostatic cancer cell line PC3 and the colon carcinoma cell line HCT116. All cells were cultured in RPMI 1640 or DMEM medium (GIBCO laboratories, Grand Island, USA), supplemented with 10% FCS, 100 Units/ml penicillin (GIBCO), 100 μg/m1 streptomycin (GIBCO) and 2 mM L-glutamine (GIBCO) at 37° C. and 5%. Wogonin (BIOTREND Chemicals AG, Wangen, Switzerland), apigenin, chrysin, luteolin and baicalein (Sigma, St. Louis, USA) were solved in dimethyl sulfoxide (DMSO; Roth, Karlsruhe, Germany) at a stock concentration of 50 mM. Cells were treated with different concentrations of different flavones or ABT-263 (Selleck Chemicals, Houston, USA) for 24 to 48 h. Apoptotic cell death was examined by analysis of DNA fragmentation as previously described 23 (Fas et al.,2006, Blood 108: 3700-6). Results are presented as % specific DNA fragmentation using the formula: (percentage of experimental apoptosis-percentage of spontaneous apoptosis)/(100-percentage of spontaneous apoptosis)×100.

Mcl-1 = assay: Western blot analysis of Mcl-1 expression; conditions: CEM; 50 μM flavone, 8 h
Text: For each sample, 1×10^7 cells were lysed as previously described. 23 Equal amounts of protein were separated on 5-13% SDS-PAGE depending on the molecular sizes of the proteins and blotted onto a nitrocellulose membrane (Amersham Biosciences, Little Chalfon, UK) as previously described. 23 The following antibodies were used: Bad, Bax, Bcl-xL, Bcl-w, XIAP from Cell Signaling Technology, Danvers, USA; Bcl-2 (sc-509) and Mcl-1 (sc-819) from Santa Cruz Biotechnology, Heidelberg, Germany; Tubulin and actin from Sigma, Saint Louis, USA.

Molt-4 cells = assay: Apoptotic cell death by DNA fragmentation, Molt-4; conditions: Homo sapiens, ABT-199 alone, read-out: concentration inducing 50% apoptotic cell death
Method: as §1

Jurkat (J16) cells = assay: Apoptotic cell death by DNA fragmentation, Jurkat; conditions: Homo sapiens; Jurkat 16; ABT-199 alone; read-out: concentration inducing 50% apoptotic cell death
Method: as §1

| SMILES | effect on ABT-263-induced apoptosis (CEM cells) | Mcl-1 protein expression (Mcl-1) | EC50 (Molt-4 cells) [µM] | EC50 (CEM cells; Homo sapiens, CCRF-CEM, ABT-199 alone, read-out: concentration inducing 50% apoptotic cell death) [µM] | EC50 (Jurkat (J16) cells) [µM] |
| --- | --- | --- | --- | --- | --- |
| O=c1cc(-c2ccc(O)c(O)c2)oc2cc(O)cc(O)c12 [luteolin] | enhance ABT-263-induced apoptosis in CEM cells in a dose-dependent manner | Down-regulation of Mcl-1 protein expression | – | – | – |
| O=c1cc(-c2ccccc2)oc2cc(O)c(O)c(O)c12 [baicalein] | enhance ABT-263-induced apoptosis in CEM cells in a dose-dependent manner | Down-regulation of Mcl-1 protein expression | – | – | – |
| O=c1cc(-c2ccc(O)cc2)oc2cc(O)cc(O)c12 [Apigenin] | enhance ABT-263-induced apoptosis in CEM cells in a dose-dependent manner | Down-regulation of Mcl-1 protein expression | – | – | – |
| O=c1cc(-c2ccccc2)oc2cc(O)cc(O)c12 [chrysin] | enhance ABT-263-induced apoptosis in CEM cells in a dose-dependent manner | Down-regulation of Mcl-1 protein expression | – | – | – |
| CC1(C)CCC(CN2CCN(c3ccc(C(=O)NS(=O)(=O)c4ccc(NCC5CCOCC5)c([N+](=O)[O-])c4)c(Oc4cnc5[nH]ccc5c4)c3)CC2)=C(c2ccc(Cl)cc2)C1 [ABT-199, 4-[4-[[2-(4-chlorophenyl)-4,4-dimethyl-1-cyclohexen-1-yl]methyl]-1-piperazinyl]-N-[[3-nitro-4-[[(tetrahydro-2H-pyran-4-yl)methyl]amino]phenyl]sulfonyl]-2-(1H-pyrrolo[2,3-b]pyridin-5-yloxy)-Benzamide] | – | – | 5 to 10 | 5 to 10 | 5 to 10 |
